Assay results as given in patent US6402037B1, “Two-photon upconverting dyes and applications” (The Research Foundation of State University of New York, priority 1995, dated 2002).
Marks after values point to notes of the source that are not given here.

Experiments:
[1] = Decomposition temperature (Td) by DSC thermogram; type: physicochemical; details: DSC under nitrogen
Protocol: Decomposition temperature (“Td”) of each dye was measured by differential scanning calorimetry (“DSC”) thermogram using a Shimadzu DSC-50GPC under nitrogen. Elemental: analysis were performed by Atlantic Microlab, Inc., P.O. Box 2288, Norcross, Ga. 30019. Proton NMR spectra, TV/visible absorption spectra, and UV/visible emission spectra were recorded using a Varian Gemini-300 300 MHz spectrometer, a Shimazdu UV-3101 PC spectrophotometer, and a Shimazdu RF5000U spectrofluorophotometer, respectively: TV/visible absorption spectra of dyes prepared in these Examples in DMF, are provided in FIG. 3.

[2] = Optical characterization of the dye-doped composite glasses; type: physicochemical
Protocol: Emission spectra were collected on a Shimadzu RF-5000U Spectrofluorophotometer (90° geometry) having a resolution of ±2 nm. For solution state measurements, a fluorometric quartz cuvette was used. For the composite glass, the emission was obtained from the surface of the glass (90° geometry) due to significant primary absorption. […]

[3] = Solubility
[4] = Optical characterization of the solution state (ethanol); details: for fluorescence quantum yield: vs Rhodamine-6G
Protocol: Absorption spectra were obtained using a Shimadzu UV-Vis 260 spectrophotometer with a resolution of ±1 nm. The spectra of solution state were obtained using quartz cuvettes (1 cm path length) throughout.
In addition, the quantum yield was measured from the fluorescence data.

[5] = TPA induced fluorescence and optical limiting in dye1-doped epoxy; type: physicochemical
Description: Dye1, prepared in accordance with Example 6, was dispersed in an optical quality epoxy compound, EPO-TEX301 (Epoxy Technology, Inc., Billerica, Mass.) by dissolving the dye powder in the liquid Part A and Part B of the epoxy. Undoped and dye1-doped epoxies were cast by blade casting techniques. Film thickness was the same (0.3 mm) for both films, and the dopant concentration for the doped film was do=0.003 M.
A 2 cm-long, dye1-doped epoxy (EPO-TEX301) rod with a concentration of do=0.004M was used for TPA induced fluorescence and optical limiting measurements. An incident near infrared laser beam, having a wavelength of 1.06 μm, a pulsewidth of about 8 ns, a spectral width of about 1 cm^−1, and a repetition rate of 3 Hz, was provided by a Q-switched Nd-YAG pulsed laser source. The incident 1.06 μm radiation on the sample was a quasi-parallel laser beam of about 1 mm size with a nearly uniform transverse intensity distribution. An orange-red fluorescence emission was readily observed by the human eye in a dark room when the 1.06 μm incident beam intensity reached several MW/cm^2. […] Each data point was averaged over 10 laser pulses by using a gated integrator and boxcar averager. The solid line is the best fitted curve based on the square law that TPA processes follow.
where I(L) is the transmitted beam intensity, Io, is the incident beam intensity, L is the thickness of the sample, and β is the TPA coefficient of the sample medium. In the derivation of Equation (1), it is assumed that the linear attenuation of the medium can be neglected and the beam has a nearly uniform transverse intensity distribution within the medium. Using Equation (1), the value of β can be determined by measuring the transmitted intensity versus the incident intensity for a sample medium with a given L value. Furthermore, the TPA coefficient β (in units of cm/GW) of a given sample is determined by
Here, No is the molecular density of the dopant (in units of 1 cm^3), σ2 is the molecular TPA coefficient (or cross-section) of the same dopant (in units of cm^4/GW, do is the concentration of the dopant compound in the matrix (in units of M), and finally NA is Avogadro's number. For known β and do, the value of σ2 can be calculated from Equation (2). Another expression for molecular TPA coefficient (or cross-section), used in some reference papers, is
where hυ is the energy of an incident photon, and σ′2 has units of cm^4/photon/sec.
The measured transmitted intensity as a function of the incident intensity for the 2 cm-long, dye1-doped epoxy rod is shown in FIG. 9. Two groups of experimental data were obtained in two measurement cycles, and each data point was an average result over 10 laser pulses. In FIG. 9, the solid line is the theoretical curve predicted by Equation (1) using a best fit parameter of β=6 cm/GW, and the dashed line is similarly constructed by assuming that there is no TPA (β=0). Consequently, FIG. 9 evidences the TPA induced optical limiting behavior of dye1 at incident intensity levels of 50-250 MW/cm^2. Using a value of β=6 cm/GW and Equations (2) and (3), the values of molecular TPA cross-section of dye1 were estimated as σ2=2.5×10^−18 cm^4/GW and σ′2=4.7×10^−46 cm^4/photon/sec. These measured values of σ2 and σ2 for dye1 in EPO-TEX301 matrix are 2˜3 orders of magnitude greater than the corresponding values of Rhodamine dyes, as reported by Rapp et al., Chem. Phys. […] The damage threshold of the 2 cm-long, dye1-doped epoxy rod was measured as 250˜300 MW/cm^2.

[6] = Two-photon pumped cavity lasing of dye-doped matrices (1.06 μm pump)
Protocol: Two-photon pumped cavity lasing experiments were conducted using a Q-switched Nd-YAG pulsed laser source having a wavelength of 1.06 μm, a pulsewidth of about 10 ns, a spectral width of about 1 cm^−1, an angular divergence of about 1.3 mrad, and a variable repetition rate of 1-10 Hz. A 1 cm-long quartz cuvette filled with dye1 solution in cyclopentanone (do≈8×10^−2 to 4×10^−2M) and a 7 mm-long, dye1 -doped poly(HEMA) rod (do,≈8×10^−3 M), prepared in accordance with Example 12, were used separately for two-photon pumped (“TPP”) lasing observation. The 1.06 μm-pump laser beam was focused on the center of the cuvette or sample rod, and a strong orange-red fluorescence emission was observed when the infrared pump intensity reached several MW/cm^2. Once the pump intensity further increased to a certain threshold level, simultaneous forward and backward highly directional superradiation could be observed from the solution or rod samples. To achieve cavity lasing, two parallel plane dielectrc-coating mirrors were employed to form a cavity. The pump beam, focused through a f-10 cm lens, was coupled into the cavity by normal incidence. The reflectivity was r=10% at 1.06 μm and r=99% at 600 nm for the front mirror (input coupler) and r=10% at 1.06 μm and r=50% at 600 nm for the rear mirror (output coupler). The total cavity length was 7˜8 cm, and the cuvette or sample rod was located at the center of the cavity. […] FIGS. 11A-11C show the emission spectra of the same 7 mm-long, dye1 -doped rod sample under the following different excitation conditions: 532 nm one-photon excited fluorescence emission (FIG. 11A), 1.06 μm two-photon excited fluorescence emission (FIG. 11B), and 1.06 μm pumped cavity lasing (FIG. 11C). Each spectrum was obtained using a grating -spectrograph in conjunction with an optical multi-channel analyzer (OMA-III) system. The difference between FIGS. 11A and 11B can be explained by a volume reabsorption effect of the emission. To obtain these two spectra, the excitation beam was incident on the rod end at a +45° angle, and the fluorescence was measured at a −45° angle. In the case of FIG. 11A, the emission was mainly from a shallow surface layer of the sample because of the very short penetration depth of the 532 nm pump radiation, and therefore, the reabsorption effect within the sample can be neglected. However, for the case of FIG. 11B, the incident infrared beam could pass through the whole rod length without obvious depletion, and, consequently, collected fluorescence signals of different spectral components were propagated within the sample for a considerable distance. […] Cavity lasing occurred at the central region of the two-photon absorption (“TPA”) induced fluorescence band, but the lasing bandwidth (˜8 nm) was much narrower than the ordinary one-photon excited fluorescence band width (˜60 nm) due to the lasing threshold requirement. In addition, a red-shift of the central lasing wavelength was observed as the pump energy increased. This shift may be caused by the local temperature change of the sample rod.
Compared to the smooth temporal profile of the 10 ns pump pulse, the lasing pulses manifested much shorter rise- and fall-times, i.e. ≦1.5 ns limited by the resolution of the detecting system. […]
The lasing output/pump input characteristic curve is given in FIG. 13 for the rod cavity lasing. […] However, at this pump level the measured one-pass two-photon absorption in the 7 mm-long rod was only about 23%. […]

[7] = as above; remark: listed apart in the source
[8] = EPO-TEX301 matrix, 1.06 μm, from β
[9] = cyclopentanone solution, 0.001 M

Question: Which results are given for `CCN(CCO)c1ccc(/C=C/c2cc[n+](CCO)cc2)cc1.[I-]` [ASPI, trans-4-[p-(N-ethyl-N-hydroxyethylamino)styryl]-N-hydroxyethylpyridinium iodide]?
Answer: Decomposition temperature (Td) [1]: 270 °C; Florescence FWHM ([2]; Composite Glass, single dye): 45 nm; Fluorescence Max. ([2]; Composite Glass, single dye): 586 nm; Florescence FWHM, ASPI emission ([2]; composite glass containing both dyes): 41 nm; Fluorescence Max., ASPI emission ([2]; composite glass containing both dyes, reconstructed peak): 594 nm; solubility ([3]; ethanol, organic solvent or mixture): 6.1 mM; solubility ([3]; in PMMA): insolubility; solubility ([3]; in methyl methacrylate monomer): insolubility; fluorescence quantum yield ([4]; 1.8×10^−6 M, excited at 482 nm): 6×10^−3; fluorescence quantum yield ([4]; 2.6×10^−6 M, excited at 509 nm): 7×10^−3; Quantum Yield ([4]; Solution State, Table 2): 6.5 × 10^−3; Absorbance Max. ([4]; ethanol): 483 nm; Stokes Shift ([4]; ethanol): 118 nm; molar absorptivity ([4]; ethanol, at 483 nm): 68000 M⁻¹ cm⁻¹; Fluorescence Max. ([4]; ethanol, ASPI 3.1×10^−3 M, Rhodamine-6G 6.5×10^−5 M, excitation 509 nm): 600 nm; Florescence FWHM ([4]; ethanol, same concentrations, excitation 509 nm): ~38 nm

Question: For `CCN(CCO)c1ccc(/C=C/c2cc[n+](C)cc2)cc1.c1ccc([B-](c2ccccc2)(c2ccccc2)c2ccccc2)cc1` [dye1, trans-4-[p-(N-ethyl-N-hydroxyethylamino)styryl]-N-methylpyridinium tetraphenyborate], which “Decomposition temperature (Td)” value [1] is on record?
Answer: 264 °C

Question: What about the “strong one-photon absorption range” value ([5]; 0.3 mm epoxy film, 0.003 M) of the same compound?
Answer: 350˜560 nm

Question: What about the “TPA coefficient β (best fit)” value ([5]; 2 cm EPO-TEX301 rod, 0.004M, 1.06 μm) of the same compound?
Answer: 6 cm/GW

Question: What about the “TPA cross-section greater than values of Rhodamine dyes” value ([5]; EPO-TEX301 matrix) of the same compound?
Answer: 2˜3 orders of magnitude

Question: What about the “molecular TPA cross-section σ2” value [5, 8] of the same compound?
Answer: 2.5×10^−18 cm^4/GW

Question: What about the “molecular TPA cross-section σ′2” value [5, 8] of the same compound?
Answer: 4.7×10^−46 cm^4/photon/sec

Question: What about the absorption bandwidth ([6]; poly(HEMA) 0.008M) of the same compound?
Answer: 80 nm

Question: What about the linear absorption peak ([6]; poly(HEMA) 0.008M) of the same compound?
Answer: 485 nm

Question: What about the one-photon fluorescence bandwidth ([6]; poly(HEMA) 0.008M) of the same compound?
Answer: 55 nm

Question: And the one-photon fluorescence peak ([6]; poly(HEMA) 0.008M)?
Answer: 577 nm

Question: What about the “molecular TPA cross-section σ2” value ([6]; poly(HEMA) rod, 1.06 μm, from nonlinear absorption data) of the same compound?
Answer: ≈ 1.2×10^−46 cm^4-sec

Question: And the one-photon fluorescence bandwidth ([7]; Vycor glass 0.0015M)?
Answer: 60 nm

Question: And the one-photon fluorescence peak ([7]; Vycor glass 0.0015M)?
Answer: 575 nm

Question: What about the absorption bandwidth [7, 9] of the same compound?
Answer: 100^a nm

Question: And the linear absorption peak [7, 9]?
Answer: 480^a nm

Question: And the one-photon fluorescence bandwidth [7, 9]?
Answer: 58^a nm

Question: And the one-photon fluorescence peak [7, 9]?
Answer: 590^a nm

Question: What about the one-photon fluorescence bandwidth ([7]; sol-gel glass 0.0015 M) of the same compound?
Answer: 55 nm

Question: What about the one-photon fluorescence peak ([7]; sol-gel glass 0.0015 M) of the same compound?
Answer: 568 nm

Question: With `CN(C)c1ccc(/C=C/c2cc[n+](C)cc2)cc1.c1ccc([B-](c2ccccc2)(c2ccccc2)c2ccccc2)cc1` [dye2, trans-4-[p-(N,N-dimethylamino)styryl]-N-methylpyridinium tetraphenyborate] as the compound, how does the “Decomposition temperature (Td)” value [1] read?
Answer: 266 °C
